Measurements taken from PMC6522524 (Nature Communications, 2019).
Values joined by “and” are separate entries in the source; they are usually repeats but may differ in a detail not shown here. Identical values can stand only once. Counter-ions that a name gives are not always drawn. Like-named read-outs stand apart in the source and are kept apart here.

Tests used:
[1] = system: HBV (ayw subtype, genotype D) replicon in HepG2.2.15 cells; test: microbe, parasite or virus in culture; format: cell-based, Hepatitis B virus; conditions: for inhibition at 1 µM: Hepatitis B virus
[2] = system: HBV pgRNA/precore RNA in HepG2.2.15 cells; format: cell-based, Hepatitis B virus
Description: Fig. 1 Effect of FDA-approved compounds on HBV replication. a Schematic depiction of the primary screening analysis. HepG2.2.15 cells, which were stably transfected with HBV replicons, were treated with 978 FDA-approved drugs (1 μM) for 3 days. Entecavir (ETV) (1 μM) served as positive control. […] Quantitative RT-PCR was performed after 6 days of incubation. d Effect of the 19 candidates on intracellular HBV capsid assembly. Huh-7 cells were transfected with pCDNA3-Core and exposed after 12 h to the 19 candidates (1 μM) for 36 h. The cells were lysed and assembled HBV core particles were isolated by sucrose step gradient ultracentrifugation, resolved on 1% agarose gels, and subjected to immunoblot analysis with anti-HBV core antibody.
Quantitative RT-PCR with primers that detect three HBV regions (R1, R2, and R3, Supplementary Table 1) was used to measure HBV transcription. This RT-PCR detects pgRNA and precore RNA (3.5 kB), two HBV surface-encoding RNAs (2.5 kB and 2.1 kB), and HBx-encoding RNA (0.7 kB)[55]. PCR conditions were 95 °C for 10 min initially, then 50 cycles of 95 °C for 30 s, 60 °C for 60 s and 72 °C for 30 s, and finally 1 cycle of 95 °C for 60 s, 55 °C for 30 s and 95 °C for 30 s.
a Schematic depiction of the R1, R2, and R3 regions of the HBV genome that were targeted by
quantitative RT-PCR to quantitate the transcription of pgRNA, two HBV surface RNAs, and HBx RNA.
pGL3/HBV pgRNA promoter or pGL3/HBV sRNA promoter. The data shown in (b – d) represent two

[3] = ref https://www.drugbank.ca/; cited from earlier work
[4] = target: T1, Cp149 (truncated HBV core protein) (Hepatitis B virus genotype D subtype ayw, UniProt P03146); test: biochemical
T1 construct: Cp149 (amino acids 1–149) is a truncated form of the HBV core protein; made in house; host or cells: Escherichia coli

[5] = system: total HBV core protein in Huh-7 cells; format: cell-based, Hepatitis B virus; conditions: for Relative Core mRNA level(Folds), individual samples: Sample1-3
Description: the indicated times. The cells were lysed and assembled HBV core particles were isolated by sucrose step-gradient ultracentrifugation, resolved on 1 % agarose gels, and subjected to immunoblot analysis with anti-HBV core antibody. Total intracellular HBV core protein was also determined by immunoblot analysis in the cell lysates. Core mRNA levels were measured by quantitative RT-PCR. The data

[6] = HepG2.2.15, 72 h, 1 μM, 3 days, ETV =100%, read-out: % of inhibition (ETV =100%), initial screening (3days)
[7] = HepG2.2.15, 144 h, 6 days, ETV =100%, read-out: % of inhibition (ETV =100%), confirmation (6days)
[8] = HepG2.2.15, 72 h, read-out: % of inhibition (ETV =100%), initial screening (3days)
[9] = HepG2.2.15, 144 h, read-out: % of inhibition (ETV =100%), confirmation (6days)

T1 sequence (P03146 1-149): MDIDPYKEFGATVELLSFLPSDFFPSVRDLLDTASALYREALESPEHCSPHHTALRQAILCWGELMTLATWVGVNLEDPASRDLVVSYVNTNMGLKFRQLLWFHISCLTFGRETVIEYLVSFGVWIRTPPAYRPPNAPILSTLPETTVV

## CCCN(CCc1cccs1)[C@H]1CCc2c(O)cccc2C1 [Rotigotine]
[1]; [6]
  inhibition at 1 µM: 104%
[1]; [7]
  inhibition at 1 µM: 65.9%
[2]; Fig. 1c, 6 days
  Relative HBV pgRNA/precore RNA level (Folds), AVERAGE: 1.049 Folds
[3]
  pKa value (acidic): 10.03
  pKa value (basic): 10.97

## NCCc1ccc(O)c(O)c1 [Dopamine hydrochloride]
[1]; [8]
  inhibition at 1 µM: 162%
[1]; [9]
  inhibition at 1 µM: 67.9%
[2]
  Relative HBV pgRNA/precore RNA level (Folds), AVERAGE: 1.103 Folds
[3]
  pKa value (acidic): 10.01
  pKa value (basic): 9.27

## Cc1c(N(C)C)c(=O)n(-c2ccccc2)n1C [Amidopyrine]
[1]; 1 μM, 3 days, ETV =100%
  % of inhibition (ETV =100%), initial screening (3days): 111.6%
[1]; 6 days, ETV =100%
  % of inhibition (ETV =100%), confirmation (6days): 7.1%
[1]; Fig. 1b, 6 days
  Relative secreted HBV DNA level (Folds), AVERAGE: 0.9368 Folds
[1]; Fig. 1b, 6 days, Sample1-3
  Relative secreted HBV DNA level (Folds), individual samples: 0.9368 Folds and 0.9352 Folds and 0.9383 Folds
[2]; Fig. 1c, 6 days
  Relative HBV pgRNA/precore RNA level (Folds), AVERAGE: 1.046 Folds
[2]; Fig. 1c, 6 days, Sample1-3
  Relative HBV pgRNA/precore RNA level (Folds), individual samples: 1.129 Folds and 0.9386 Folds and 1.071 Folds
[3]
  pKa value (basic): 3.47

## COc1cc(C)c(/C=C/C(C)=C/C=C/C(C)=C/C(=O)O)c(C)c1C [Acitretin]
[1]; [6]
  inhibition at 1 µM: 110%
[1]; [7]
  inhibition at 1 µM: 1.8%
[2]; Fig. 1c, 6 days
  Relative HBV pgRNA/precore RNA level (Folds), AVERAGE: 0.9923 Folds
[3]
  pKa value (acidic): 5.01
  pKa value (basic): -4.8

## O=c1[nH]c(=O)n(C2CCCO2)cc1F (stereo not shown) [Ftorafur]
[1]; [6]
  inhibition at 1 µM: 131%
[1]; [7]
  inhibition at 1 µM: 64.7%
[2]; Fig. 1c, 6 days
  Relative HBV pgRNA/precore RNA level (Folds), AVERAGE: 0.977 Folds
[3]
  pKa value (acidic): 8.08
  pKa value (basic): -4.3

## C[N+]1(C)[C@@H]2C[C@@H](OC(=O)C(O)(c3cccs3)c3cccs3)C[C@H]1[C@@H]1O[C@@H]12 [Tiotropium Bromide hydrate]
[1]; [6]
  inhibition at 1 µM: 117%
[1]; [7]
  inhibition at 1 µM: 4.9%
[2]; Fig. 1c, 6 days
  Relative HBV pgRNA/precore RNA level (Folds), AVERAGE: 1.071 Folds
[3]
  pKa value (acidic): 10.35
  pKa value (basic): -4.3

## L-Adrenaline
[1]; 1 μM, 3 days, ETV =100%
  % of inhibition (ETV =100%), initial screening (3days): 152.6%
[1]; 6 days, ETV =100%
  % of inhibition (ETV =100%), confirmation (6days): 1.5%
[1]; Fig. 1b, 6 days
  Relative secreted HBV DNA level (Folds), AVERAGE: 0.9865 Folds
[1]; Fig. 1b, 6 days, Sample1-3
  Relative secreted HBV DNA level (Folds), individual samples: 0.9865 Folds and 0.985 Folds and 0.9881 Folds
[2]; Fig. 1c, 6 days
  Relative HBV pgRNA/precore RNA level (Folds), AVERAGE: 0.9192 Folds
[2]; Fig. 1c, 6 days, Sample1-3
  Relative HBV pgRNA/precore RNA level (Folds), individual samples: 1.032 Folds and 0.7969 Folds and 0.9286 Folds

## O=N[O-].[Na+] [Sodium nitrite]
[1]
  % of inhibition (ETV =100%), confirmation (6days): 83.1%
  Relative secreted HBV DNA level (Folds), AVERAGE: 0.2643 Folds
  Relative secreted HBV DNA level (Folds), individual samples: 0.2643 Folds and 0.2628 Folds and 0.2659 Folds
[1]; 1 µM
  % of inhibition (ETV =100%), initial screening (3days): 152.7%
[2]
  Relative HBV pgRNA/precore RNA level (Folds), AVERAGE: 0.04652 Folds
  Relative HBV pgRNA/precore RNA level (Folds), individual samples: 0.04803 Folds and 0.041 Folds and 0.05054 Folds

## CC(C)(C)c1ccc(C(O)CCCN2CCC(C(O)(c3ccccc3)c3ccccc3)CC2)cc1 (stereo not shown) [Terfenadine]
[1]; [8]
  inhibition at 1 µM: 101%
[1]; [9]
  inhibition at 1 µM: 83.6%
[2]
  Relative HBV pgRNA/precore RNA level (Folds), AVERAGE: 0.05435 Folds
[3]
  pKa value (acidic): 13.2
  pKa value (basic): 9.02

## Clc1ccc(COC(Cn2ccnc2)c2ccc(Cl)cc2Cl)c(Cl)c1 (stereo not shown) [Miconazole]
[1]; [8]
  inhibition at 1 µM: 132%
[1]; [9]
  inhibition at 1 µM: -2.8%
[2]
  Relative HBV pgRNA/precore RNA level (Folds), AVERAGE: 0.964 Folds
[3]
  pKa value (basic): 6.77

## CC(C)NCC(O)c1ccc(NS(C)(=O)=O)cc1 (stereo not shown) [Sotalol]
[1]; [6]
  inhibition at 1 µM: 128%
[1]; [7]
  inhibition at 1 µM: 69.7%
[2]; Fig. 1c, 6 days
  Relative HBV pgRNA/precore RNA level (Folds), AVERAGE: 1.022 Folds
[3]
  pKa value (acidic): 10.07
  pKa value (basic): 9.43

## Clc1ccc(COC(Cn2ccnc2)c2ccc(Cl)cc2Cl)cc1 (stereo not shown) [Econazole nitrate]
[1]; [8]
  inhibition at 1 µM: 147%
[1]; [9]
  inhibition at 1 µM: 27.5%
[2]
  Relative HBV pgRNA/precore RNA level (Folds), AVERAGE: 0.0453 Folds
[3]
  pKa value (basic): 6.77

## GLS-4
[4]
  Relative intensity (Folds), in vitro core assembly, individual samples: 1.0339 Folds and 1.019 Folds and 0.9819 Folds and 1.079 Folds and 1.058 Folds and 1.102 Folds and 0.3491 Folds and 0.342 Folds and 0.3462 Folds and 0.1267 Folds and 0.1171 Folds and 0.123 Folds and 0.01326 Folds and 0.01176 Folds and 0.01165 Folds and 0 Folds (6×)
[5]; 1.5day, 0.1 μM
  Relative Core mRNA level(Folds), AVERAGE: 0.9973 Folds
  Relative Core mRNA level(Folds), individual samples: 1.007 Folds and 1.003 Folds and 0.9824 Folds
[5]; 1.5day, 0.5 μM
  Relative Core mRNA level(Folds), AVERAGE: 1.0017 Folds
  Relative Core mRNA level(Folds), individual samples: 0.9742 Folds and 0.987 Folds and 1.044 Folds
[5]; 1.5day, 1 μM
  Relative Core mRNA level(Folds), AVERAGE: 0.9997 Folds
  Relative Core mRNA level(Folds), individual samples: 1.008 Folds and 0.9861 Folds and 1.005 Folds
[5]; 1.5day, 5 μM
  Relative Core mRNA level(Folds), AVERAGE: 1.008 Folds
  Relative Core mRNA level(Folds), individual samples: 1.002 Folds and 0.9963 Folds and 1.025 Folds
[5]; 1.5day, 10 μM
  Relative Core mRNA level(Folds), AVERAGE: 0.9997 Folds
  Relative Core mRNA level(Folds), individual samples: 0.9972 Folds and 0.9916 Folds and 1.01 Folds
[5]; 2.5day, 0.1 μM
  Relative Core mRNA level(Folds), AVERAGE: 0.9923 Folds
  Relative Core mRNA level(Folds), individual samples: 1.007 Folds and 0.9944 Folds and 0.976 Folds
[5]; 2.5day, 0.5 μM
  Relative Core mRNA level(Folds), AVERAGE: 0.9898 Folds
  Relative Core mRNA level(Folds), individual samples: 1 Folds and 0.9926 Folds and 0.9769 Folds
[5]; 2.5day, 1 μM
  Relative Core mRNA level(Folds), AVERAGE: 0.9998 Folds
  Relative Core mRNA level(Folds), individual samples: 1.0179 Folds and 1.005 Folds and 0.9769 Folds
[5]; 2.5day, 5 μM
  Relative Core mRNA level(Folds), AVERAGE: 0.9873 Folds
  Relative Core mRNA level(Folds), individual samples: 0.9861 Folds and 0.9889 Folds and 0.987 Folds
[5]; 2.5day, 10 μM
  Relative Core mRNA level(Folds), AVERAGE: 1.003 Folds
  Relative Core mRNA level(Folds), individual samples: 1.007 Folds and 1.001 Folds
[5]; 4.5day, 0.1 μM
  Relative Core mRNA level(Folds), AVERAGE: 0.9929 Folds
  Relative Core mRNA level(Folds), individual samples: 1.007 Folds and 0.9944 Folds and 0.9778 Folds
[5]; 4.5day, 0.5 μM
  Relative Core mRNA level(Folds), AVERAGE: 0.9886 Folds
  Relative Core mRNA level(Folds), individual samples: 1 Folds and 0.9889 Folds and 0.9769 Folds
[5]; 4.5day, 1 μM
  Relative Core mRNA level(Folds), AVERAGE: 0.9986 Folds
  Relative Core mRNA level(Folds), individual samples: 1.0179 Folds and 1.001 Folds and 0.9769 Folds
[5]; 4.5day, 5 μM
  Relative Core mRNA level(Folds), AVERAGE: 0.9904 Folds
  Relative Core mRNA level(Folds), individual samples: 0.9861 Folds and 0.9981 Folds and 0.987 Folds
[5]; 4.5day, 10 μM
  Relative Core mRNA level(Folds), AVERAGE: 0.9982 Folds
  Relative Core mRNA level(Folds), individual samples: 1.007 Folds and 0.9916 Folds and 0.9963 Folds
[5]; treatment time increased
  total core protein: decreased
